According to patent US20050171057A1, “Pantoprazole cyclodextrin inclusion complexes” (ALTANA PHARMA AG, priority 2002, published 2005):
≈ marks a conversion by molar mass, not a printed value. Where two headings read alike, the source gives them in different places.

Key:
[1] = Phase-solubility studies of PNTH with β-CD, HPβ-CD and SBβ-CD in phosphate buffer pH 7; type: physicochemical; details: for solubility: thermodynamic from solid; for increase of apparent solubility versus phosphate buffer alone: phosphate buffer pH 7
Procedure: The Solubility of PNTH in Phosphate Buffer Solution at pH 7 was Determined Using a Previously Constructed Asorbance vs. Concentration Calibration Curve.
A known amount of PNTH was suspended in cyclodextrin solutions of different concentrations ranging from; 0 to 1.8% (p/v) for β-CD, 0 to 20% (p/v) for H-Pβ-CD and 0 to 15% (p/v) for SB-β-CD. The resulting suspension was filtered using a PTFE 0.45μ filter, adequately diluted and then subjected to UV spectrophotometric analysis. The concentration of PNTH in the corresponding sample was then calculated referring to the relevant PNTH calibration curve.
UV-VIS spectra were recorded on a Jasco V570 Spectrophoto meter.

[2] = Complexation (phase solubility) study of pantoprazole with βCD and HPβCD in phosphate buffer pH 7; type: physicochemical; details: in the presence of βCD (up to 1.8% p/v), phosphate buffer pH 7, maximum
Procedure: Methods: Various solutions of the different cyclodextrins taken into consideration were prepared in phosphate buffer solution pH 7 at known concentrations and used to create saturated solutions of pantoprazole. After equilibration, these saturated solutions were filtered through MF™ membrane filters (pore size 0.45 μm), appropriately diluted with phosphate buffer solution and subjected to uv/vis spectrophotometric analysis. The cyclodextrin solutions prepared with phosphate buffer ranged from concentrations of 0% p/v up to 1.8% p/v for βCD, 20% p/v for HPβCD.

- solubility ([1]; aqueous buffer, phosphate buffer solution pH 7, no cyclodextrin, read-out: solubility in phosphate buffer alone): 0.56 mM (≈ 215 µg/mL)
- solubility ([1]; aqueous with cosolvent or surfactant or cyclodextrin, solutions of HPβ-CD (0 to 20% p/v) in phosphate buffer pH 7, maximum reached, read-out: apparent solubility with HPβ-CD): 17.8 mM (≈ 6820 µg/mL)
- solubility ([1]; aqueous with cosolvent or surfactant or cyclodextrin, solutions of SBβ-CD (0 to 15% p/v) in phosphate buffer pH 7, maximum reached, read-out: apparent solubility with SBβ-CD): 9.3 mM (≈ 3570 µg/mL)
- solubility ([1]; aqueous with cosolvent or surfactant or cyclodextrin, solutions of β-CD (0 to 1.8% p/v) in phosphate buffer pH 7, maximum reached, read-out: apparent solubility with β-CD): 2.25 mM (≈ 863 µg/mL)
- increase of apparent solubility versus phosphate buffer alone ([1]; solutions of HPβ-CD (0 to 20% p/v)): 36 times
- increase of apparent solubility versus phosphate buffer alone ([1]; solutions of SBβ-CD (0 to 15% p/v)): twenty
- increase of apparent solubility versus phosphate buffer alone ([1]; solutions of β-CD (0 to 1.8% p/v)): four
- increase of solubility with respect to solubility in phosphate buffer [2]: four
SMILES: COc1ccnc(C[S+]([O-])c2nc3ccc(OC(F)F)cc3[nH]2)c1OC (centres unmarked) [pantoprazole, 5-difluoromethoxy-2-[(3,4-dimethoxy-2-pyridinyl)methylsulfinyl]-1H-benzimidazole]
